Active and inactive are the calls of the source. How the calls were made is not given here.
System: CCRIS mutagenicity, Ames/micronucleus/aberration tests
Assay: CCRIS mutagenicity studies
[1] = Test System: AMES SALMONELLA TYPHIMURIUM, Strain/Indicator: TA98, Metabolic Activation: NONE, Method: STANDARD PLATE
[2] = Test System: AMES SALMONELLA TYPHIMURIUM, Strain/Indicator: TA98, Metabolic Activation: RAT, LIVER, S-9, AROCLOR 1254, Method: STANDARD PLATE
[3] = Test System: AMES SALMONELLA TYPHIMURIUM, Strain/Indicator: TA100, Metabolic Activation: NONE, Method: STANDARD PLATE
[4] = Test System: AMES SALMONELLA TYPHIMURIUM, Strain/Indicator: TA100, Metabolic Activation: RAT, LIVER, S-9, AROCLOR 1254, Method: STANDARD PLATE
[5] = Test System: AMES SALMONELLA TYPHIMURIUM, Strain/Indicator: TA1535, Metabolic Activation: NONE, Method: STANDARD PLATE
[6] = Test System: AMES SALMONELLA TYPHIMURIUM, Strain/Indicator: TA1535, Metabolic Activation: RAT, LIVER, S-9, AROCLOR 1254, Method: STANDARD PLATE
[7] = Test System: AMES SALMONELLA TYPHIMURIUM, Strain/Indicator: TA1537, Metabolic Activation: NONE, Method: STANDARD PLATE
[8] = Test System: AMES SALMONELLA TYPHIMURIUM, Strain/Indicator: TA1537, Metabolic Activation: RAT, LIVER, S-9, AROCLOR 1254, Method: STANDARD PLATE
[9] = Test System: CHINESE HAMSTER V-79, Strain/Indicator: V-79/6-THIOGUANINE, Metabolic Activation: NONE
[10] = Test System: AMES SALMONELLA TYPHIMURIUM, Strain/Indicator: TA98, Metabolic Activation: NONE, Method: PREINCUBATION
[11] = Test System: AMES SALMONELLA TYPHIMURIUM, Strain/Indicator: TA100, Metabolic Activation: NONE, Method: PREINCUBATION

SMILES: CC(C)C1=CC2=CC[C@@H]3[C@](C)(CCC[C@@]3(C)C(=O)O)[C@H]2CC1
- mutagenic call (Test System: AMES SALMONELLA TYPHIMURIUM, Strain/Indicator: TA98, Metabolic Activation: HAMSTER, LIVER, S-9, AROCLOR 1254, Method: STANDARD PLATE): inactive; negative
- mutagenic call [1]: inactive; negative
- mutagenic call [2]: inactive; negative
- mutagenic call (Test System: AMES SALMONELLA TYPHIMURIUM, Strain/Indicator: TA100, Metabolic Activation: HAMSTER, LIVER, S-9, AROCLOR 1254, Method: STANDARD PLATE): inactive; negative
- mutagenic call [3]: inactive; negative
- mutagenic call [4]: inactive; negative
- mutagenic call (Test System: AMES SALMONELLA TYPHIMURIUM, Strain/Indicator: TA1535, Metabolic Activation: HAMSTER, LIVER, S-9, AROCLOR 1254, Method: STANDARD PLATE): inactive; negative
- mutagenic call [5]: inactive; negative
- mutagenic call [6]: inactive; negative
- mutagenic call (Test System: AMES SALMONELLA TYPHIMURIUM, Strain/Indicator: TA1537, Metabolic Activation: HAMSTER, LIVER, S-9, AROCLOR 1254, Method: STANDARD PLATE): inactive; negative
- mutagenic call [7]: inactive; negative
- mutagenic call [8]: inactive; negative
- mutagenic call (Test System: AMES SALMONELLA TYPHIMURIUM, Strain/Indicator: TA1538, Metabolic Activation: HAMSTER, LIVER, S-9, AROCLOR 1254, Method: STANDARD PLATE): inactive; negative
- mutagenic call (Test System: AMES SALMONELLA TYPHIMURIUM, Strain/Indicator: TA1538, Metabolic Activation: NONE, Method: STANDARD PLATE): inactive; negative
- mutagenic call (Test System: AMES SALMONELLA TYPHIMURIUM, Strain/Indicator: TA1538, Metabolic Activation: RAT, LIVER, S-9, AROCLOR 1254, Method: STANDARD PLATE): inactive; negative
- mutagenic call (Test System: MOUSE LYMPHOMA, Strain/Indicator: L5178Y (TK+/TK-), Metabolic Activation: NONE, Method: SUSPENSION/PLATE): active; positive. reevaluation of results: positive
- mutagenic call (Test System: MOUSE LYMPHOMA, Strain/Indicator: L5178Y (TK+/TK-), Metabolic Activation: RAT, LIVER, S-9, AROCLOR 1254, Method: SUSPENSION/PLATE): inactive; negative. reevaluation of results: negative

SMILES: O=c1[nH]c(=O)n([C@H]2C[C@H](O)[C@@H](CO)O2)cc1CO
- mutagenic call [1]: inactive; negative
- mutagenic call [2]: inactive; negative
- mutagenic call [3]: active; positive
- mutagenic call [4]: active; positive
- mutagenic call (Test System: AMES SALMONELLA TYPHIMURIUM, Strain/Indicator: TA102, Metabolic Activation: NONE, Method: STANDARD PLATE): active; positive
- mutagenic call [7]: inactive; negative
- mutagenic call [8]: inactive; negative
- mutagenic call [9]: active; positive
- mutagenic call (Test System: CHINESE HAMSTER V-79, Strain/Indicator: V-79/OUABAIN, Metabolic Activation: NONE): inactive; negative

SMILES: COc1ccc2cc1Oc1ccc(cc1)C[C@H]1c3cc(c(OC)cc3CCN1C)Oc1c(OC)c(OC)cc3c1[C@H](C2)N(C)CC3
- mutagenic call [1]: inactive; negative
- mutagenic call [2]: active; positive
- mutagenic call [3]: inactive; negative
- mutagenic call [4]: inactive; negative

SMILES: CC(=O)[C@]1(O)Cc2c(O)c3c(c(O)c2[C@@H](O[C@H]2C[C@H](N)[C@H](OC(C[C@H](C)O)O[C@@H](C)C=O)[C@H](C)O2)C1)C(=O)c1c(O)cccc1C3=O (stereo partly drawn)
- mutagenic call [10]: active; positive
- mutagenic call (Test System: AMES SALMONELLA TYPHIMURIUM, Strain/Indicator: TA98, Metabolic Activation: RAT, LIVER, S-9, Method: PREINCUBATION): active; positive
- mutagenic call (Test System: AMES SALMONELLA TYPHIMURIUM, Strain/Indicator: TA98, Metabolic Activation: S-9, Method: PREINCUBATION): active; positive
- mutagenic call [11]: active; positive
- mutagenic call (Test System: AMES SALMONELLA TYPHIMURIUM, Strain/Indicator: TA100, Metabolic Activation: RAT, LIVER, S-9, Method: PREINCUBATION): active; positive
- mutagenic call (Test System: AMES SALMONELLA TYPHIMURIUM, Strain/Indicator: TA100, Metabolic Activation: S-9, Method: PREINCUBATION): active; positive
- mutagenic call [9]: active; positive
- mutagenic call (Test System: CHINESE HAMSTER V-79, Strain/Indicator: V-79/6-THIOGUANINE, Metabolic Activation: NONE, Method: REPLATING): active; positive

SMILES: CC[C@H](C)OS(C)(=O)=O
- mutagenic call [3]: active; positive
- mutagenic call [5]: active; positive
- mutagenic call [9]: active; positive

SMILES: O=C1C=C[C@]2(O)c3c(ccc(O)c31)-c1ccc(O)c3c1[C@H]2C1OC1C3=O (stereo partly drawn)
- mutagenic call [1]: active; positive
- mutagenic call [2]: active; positive
- mutagenic call [3]: active; positive
- mutagenic call [4]: active; positive
- mutagenic call [5]: inactive; negative
- mutagenic call [6]: inactive; negative
- mutagenic call [7]: active; positive
- mutagenic call [8]: active; positive

SMILES: Fc1ccc2cc3c(cc2c1)-c1cccc2cccc-3c12
- mutagenic call [4]: active; positive

SMILES: CN=C1C=CC(=C(c2ccc(N(C)C)cc2)c2ccc(N(C)C)cc2)C=C1
- mutagenic call (Test System: AMES SALMONELLA TYPHIMURIUM, Strain/Indicator: TA97, Metabolic Activation: NONE, Method: STANDARD PLATE): inactive; negative
- mutagenic call (Test System: AMES SALMONELLA TYPHIMURIUM, Strain/Indicator: TA97, Metabolic Activation: RAT, LIVER, S-9, AROCLOR 1254, Method: STANDARD PLATE): inactive; negative
- mutagenic call [1]: inactive; negative
- mutagenic call [2]: inactive; negative
- mutagenic call [3]: inactive; negative
- mutagenic call [4]: inactive; negative
- mutagenic call (Test System: AMES SALMONELLA TYPHIMURIUM, Strain/Indicator: TA104, Metabolic Activation: NONE, Method: STANDARD PLATE): inactive; negative
- mutagenic call (Test System: AMES SALMONELLA TYPHIMURIUM, Strain/Indicator: TA104, Metabolic Activation: RAT, LIVER, S-9, AROCLOR 1254, Method: STANDARD PLATE): inactive; negative

SMILES: CCCCCN(CCCCC)CCCCC
- mutagenic call (Test System: AMES SALMONELLA TYPHIMURIUM, Strain/Indicator: TA98, Metabolic Activation: HAMSTER, LIVER, S-9, AROCLOR 1254 (10%), Method: PREINCUBATION): inactive; negative
- mutagenic call [10]: inactive; negative
- mutagenic call (Test System: AMES SALMONELLA TYPHIMURIUM, Strain/Indicator: TA98, Metabolic Activation: RAT, LIVER, S-9, AROCLOR 1254 (10%), Method: PREINCUBATION): inactive; negative
- mutagenic call (Test System: AMES SALMONELLA TYPHIMURIUM, Strain/Indicator: TA100, Metabolic Activation: HAMSTER, LIVER, S-9, AROCLOR 1254 (10%), Method: PREINCUBATION): inactive; negative
- mutagenic call [11]: inactive; negative
- mutagenic call (Test System: AMES SALMONELLA TYPHIMURIUM, Strain/Indicator: TA100, Metabolic Activation: RAT, LIVER, S-9, AROCLOR 1254 (10%), Method: PREINCUBATION): inactive; negative
- mutagenic call (Test System: AMES SALMONELLA TYPHIMURIUM, Strain/Indicator: TA1535, Metabolic Activation: HAMSTER, LIVER, S-9, AROCLOR 1254 (10%), Method: PREINCUBATION): inactive; negative
- mutagenic call (Test System: AMES SALMONELLA TYPHIMURIUM, Strain/Indicator: TA1535, Metabolic Activation: NONE, Method: PREINCUBATION): inactive; negative
- mutagenic call (Test System: AMES SALMONELLA TYPHIMURIUM, Strain/Indicator: TA1535, Metabolic Activation: RAT, LIVER, S-9, AROCLOR 1254 (10%), Method: PREINCUBATION): inactive; negative
- mutagenic call (Test System: AMES SALMONELLA TYPHIMURIUM, Strain/Indicator: TA1537, Metabolic Activation: HAMSTER, LIVER, S-9, AROCLOR 1254 (10%), Method: PREINCUBATION): inactive; negative
- mutagenic call (Test System: AMES SALMONELLA TYPHIMURIUM, Strain/Indicator: TA1537, Metabolic Activation: NONE, Method: PREINCUBATION): inactive; negative
- mutagenic call (Test System: AMES SALMONELLA TYPHIMURIUM, Strain/Indicator: TA1537, Metabolic Activation: RAT, LIVER, S-9, AROCLOR 1254 (10%), Method: PREINCUBATION): inactive; negative

SMILES: Cc1cccc2cccc([N+](=O)[O-])c12
- mutagenic call [10]: active; positive

SMILES: O=Cc1ccc2ccc3cccc4ccc1c2c34
- mutagenic call [2]: active; positive
- mutagenic call [4]: active; positive

Source: PubChem BioAssay AID1259407 (Chemical Carcinogenesis Research Information System (CCRIS), 2018)
